Laboratory results: paper PMC9090415, “Discovery of small molecule inhibitors of Plasmodium falciparum apicoplast DNA polymerase” (Journal of Enzyme Inhibition and Medicinal Chemistry, 2022)

Biological target: P. falciparum apicoplast DNA polymerase (Pf-apPOL) (Plasmodium falciparum, UniProt Q8ILY1)
Assay: Fluorescence-based high-throughput DNA polymerase assay (molecular beacon), primary screen and dose-response;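 as to % inhibition ApPOL 90': test concentration in µM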;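 as to % inhibition apPOL 180': test concentration in µM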
Format: biochemical
Procedure, shortened: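 Single-point screening used 10 µM compound with 20 nM polymerase, 20 nM hairpin substrate and 6 µM dNTPs for 90 min at 25 °C. Confirmatory titrations (2.5–80 µM) followed fluorescence at three times, and IC50 was derived from a fit including a cooperativity term n.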

Sequence of P. falciparum apicoplast DNA polymerase (Pf-apPOL) (Q8ILY1 entry or part of it): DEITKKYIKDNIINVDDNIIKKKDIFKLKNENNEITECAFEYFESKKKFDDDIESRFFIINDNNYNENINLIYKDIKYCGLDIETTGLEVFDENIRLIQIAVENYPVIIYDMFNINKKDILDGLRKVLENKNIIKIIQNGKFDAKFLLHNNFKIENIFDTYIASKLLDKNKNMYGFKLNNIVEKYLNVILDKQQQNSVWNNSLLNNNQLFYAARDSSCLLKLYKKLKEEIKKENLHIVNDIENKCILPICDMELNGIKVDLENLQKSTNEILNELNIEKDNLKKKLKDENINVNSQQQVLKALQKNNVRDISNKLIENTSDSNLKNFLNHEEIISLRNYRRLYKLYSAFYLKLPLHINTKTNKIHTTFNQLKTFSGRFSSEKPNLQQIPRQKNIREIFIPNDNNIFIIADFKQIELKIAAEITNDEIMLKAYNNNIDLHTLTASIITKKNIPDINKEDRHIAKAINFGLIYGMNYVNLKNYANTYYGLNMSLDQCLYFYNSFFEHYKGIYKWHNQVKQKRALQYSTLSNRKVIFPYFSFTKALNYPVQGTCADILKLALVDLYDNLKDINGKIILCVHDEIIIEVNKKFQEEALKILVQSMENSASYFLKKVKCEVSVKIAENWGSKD

## CC1=NNC(=O)C1Oc1ccc(Cl)cc1Cl (stereo not shown) [KU0265591]
'DNA Pol'; screening value, unit not given; 90 min, 10 µM
  DNA Pol: 75
DRC-1; 10'; concentration 2.5
  % inhibition Apo pol 10': 8.365%
DRC-1; 10'; concentration 5
  % inhibition Apo pol 10': 10.5259%
DRC-1; 10'; concentration 10
  % inhibition Apo pol 10': 21.6096%
DRC-1; 10'; concentration 20
  % inhibition Apo pol 10': 39.4478%
DRC-1; 10'; concentration 40
  % inhibition Apo pol 10': 60.3328%
DRC-1; 10'; concentration 80
  % inhibition Apo pol 10': 74.8276%
DRC-1; 90'; concentration 2.5
  % inhibition Apol 90': -1.52%
DRC-1; 90'; concentration 5
  % inhibition Apol 90': -3.728%
DRC-1; 90'; concentration 10
  % inhibition Apol 90': 5.588%
DRC-1; 90'; concentration 20
  % inhibition Apol 90': 19.9514%
DRC-1; 90'; concentration 40
  % inhibition Apol 90': 37.9721%
DRC-1; 90'; concentration 80
  % inhibition Apol 90': 53.1645%
DRC-1; 180'; concentration 2.5
  % inhibition apPOL 180': -5.173%
DRC-1; 180'; concentration 5
  % inhibition apPOL 180': -9.633%
DRC-1; 180'; concentration 10
  % inhibition apPOL 180': -1.598%
DRC-1; 180'; concentration 20
  % inhibition apPOL 180': 9.166%
DRC-1; 180'; concentration 40
  % inhibition apPOL 180': 27.6068%
DRC-1; 180'; concentration 80
  % inhibition apPOL 180': 41.8944%
DRC-2, 5', concentration 2.5
  % inhibition Apo pol 5': 10%
DRC-2, 5', concentration 5
  % inhibition Apo pol 5': 12%
DRC-2, 5', concentration 10
  % inhibition Apo pol 5': 24%
DRC-2, 5', concentration 20
  % inhibition Apo pol 5': 32%
DRC-2, 5', concentration 40
  % inhibition Apo pol 5': 45%
DRC-2, 5', concentration 80
  % inhibition Apo pol 5': 52%
DRC-2, 40', concentration 2.5
  % inhibition Apol 40': 5%
DRC-2, 40', concentration 5
  % inhibition Apol 40': 4.74%
DRC-2, 40', concentration 10
  % inhibition Apol 40': 15%
DRC-2, 40', concentration 20
  % inhibition Apol 40': 26%
DRC-2, 40', concentration 40
  % inhibition Apol 40': 42%
DRC-2, 40', concentration 80
  % inhibition Apol 40': 53%
DRC-2, 90', concentration 2.5
  % inhibition ApPOL 90': 1.69%
DRC-2, 90', concentration 5
  % inhibition ApPOL 90': -0.164%
DRC-2, 90', concentration 10
  % inhibition ApPOL 90': 9%
DRC-2, 90', concentration 20
  % inhibition ApPOL 90': 20%
DRC-2, 90', concentration 40
  % inhibition ApPOL 90': 37%
DRC-2, 90', concentration 80
  % inhibition ApPOL 90': 51%
DRC-2, 180', concentration 2.5
  % inhibition apPOL 180': -3.43%
DRC-2, 180', concentration 5
  % inhibition apPOL 180': -6%
DRC-2, 180', concentration 10
  % inhibition apPOL 180': -1.09%
DRC-2, 180', concentration 20
  % inhibition apPOL 180': 9%
DRC-2, 180', concentration 40
  % inhibition apPOL 180': 26%
DRC-2, 180', concentration 80
  % inhibition apPOL 180': 42%
Conc 10 (unit not given); 90'; DRC-2
  % inhibition ApPOL 90': 9%
Conc 20 (unit not given); 40'; DRC-2
  % inhibition Apol 40': 26%
Conc 20 (unit not given); 180'; DRC-2
  % inhibition apPOL 180': 9%
Conc 40 (unit not given); 40'; DRC-2
  % inhibition Apol 40': 42%
Conc 40 (unit not given); 180'; DRC-2
  % inhibition apPOL 180': 26%
Conc 80 (unit not given); 180'; DRC-2
  % inhibition apPOL 180': 42%
Primary screen hit value, DNA Pol (186 hits); 90 min, 10 µM
  DNA Pol: 75

## COc1ccc(-c2occ(C(=O)O)c2C(=O)O)cc1 [KU0021536]
DRC-1; concentration 2.5; 10'
  % inhibition Apo pol 10': 12.66%
DRC-1; concentration 2.5; 90'
  % inhibition Apol 90': 6.208%
DRC-1; concentration 2.5; 180'
  % inhibition apPOL 180': 0.2787%
DRC-1; concentration 5; 10'
  % inhibition Apo pol 10': 21.9361%
DRC-1; concentration 5; 90'
  % inhibition Apol 90': 18.5169%
DRC-1; concentration 5; 180'
  % inhibition apPOL 180': 12.9539%
DRC-1; concentration 10; 10'
  % inhibition Apo pol 10': 43.1098%
DRC-1; concentration 10; 90'
  % inhibition Apol 90': 39.5848%
DRC-1; concentration 10; 180'
  % inhibition apPOL 180': 35.5357%
DRC-1; concentration 20; 10'
  % inhibition Apo pol 10': 66.1228%
DRC-1; concentration 20; 90'
  % inhibition Apol 90': 63.2397%
DRC-1; concentration 20; 180'
  % inhibition apPOL 180': 62.8921%
DRC-1; concentration 40; 10'
  % inhibition Apo pol 10': 86.5866%
DRC-1; concentration 40; 90'
  % inhibition Apol 90': 84.6266%
DRC-1; concentration 40; 180'
  % inhibition apPOL 180': 85.4203%
DRC-1; concentration 80 (unit not given); 10'
  % inhibition Apo pol 10': 93.5468%
DRC-1; concentration 80; 90'
  % inhibition Apol 90': 92.3135%
DRC-1; concentration 80; 180'
  % inhibition apPOL 180': 92.8082%
DRC-2; 5'; concentration 40
  % inhibition Apo pol 5': 50%
DRC-2; 40'; concentration 10
  % inhibition Apol 40': 48%
DRC-2; 90'; concentration 10
  % inhibition ApPOL 90': 50%
DRC-2; 90'; concentration 80
  % inhibition ApPOL 90': 77%
DRC-2; 180'; concentration 10
  % inhibition apPOL 180': 48%
DRC-2; 180'; concentration 40
  % inhibition apPOL 180': 77%
DRC-2; concentration 2.5; 5'
  % inhibition Apo pol 5': 7%
DRC-2; concentration 2.5; 40'
  % inhibition Apol 40': 17%
DRC-2; concentration 2.5; 90'
  % inhibition ApPOL 90': 16%
DRC-2; concentration 2.5; 180'
  % inhibition apPOL 180': 10%
DRC-2; concentration 5; 5'
  % inhibition Apo pol 5': 21%
DRC-2; concentration 5; 40'
  % inhibition Apol 40': 30%
DRC-2; concentration 5; 90'
  % inhibition ApPOL 90': 32%
DRC-2; concentration 5; 180'
  % inhibition apPOL 180': 27%
DRC-2; concentration 10; 5'
  % inhibition Apo pol 5': 34%
DRC-2; concentration 10; 40'
  % inhibition Apol 40': 48%
DRC-2; concentration 10; 90'
  % inhibition ApPOL 90': 50%
DRC-2; concentration 10; 180'
  % inhibition apPOL 180': 48%
DRC-2; concentration 20; 5'
  % inhibition Apo pol 5': 43%
DRC-2; concentration 20; 40'
  % inhibition Apol 40': 62%
DRC-2; concentration 20; 90'
  % inhibition ApPOL 90': 66%
DRC-2; concentration 20; 180'
  % inhibition apPOL 180': 67%
DRC-2; concentration 40; 5'
  % inhibition Apo pol 5': 50%
DRC-2; concentration 40; 40'
  % inhibition Apol 40': 70%
DRC-2; concentration 40; 90'
  % inhibition ApPOL 90': 75%
DRC-2; concentration 40; 180'
  % inhibition apPOL 180': 77%
DRC-2; concentration 80; 5'
  % inhibition Apo pol 5': 51%
DRC-2; concentration 80; 40'
  % inhibition Apol 40': 74%
DRC-2; concentration 80; 90'
  % inhibition ApPOL 90': 77%
DRC-2; concentration 80; 180'
  % inhibition apPOL 180': 80%
Primary screen value of the 186 hits; unit not given; 90 min, 10 µM
  DNA Pol: 29
Primary screen value; head prints only 'DNA Pol'; 90 min, 10 µM
  DNA Pol: 29
